Data taken from US20050209251A1, “Substituted pyrazolo-pyrimidine-4-ones” (priority 2002, published 2005).

Tests used:
[1] = logP determination by reversed-phase HPLC (EEC Directive 79/831 Annex V.A8), acidic range; format: physicochemical; details: for chromatographic logP: pH 2, HPLC, C18 reversed-phase column, read-out: logP (pH 2)
Description: The logP values given in the table were determined in accordance with EEC Directive 79/831 Annex V.A8 by HPLC (High Performance Liquid Chromatography) using a reversed-phase column (C 18). Temperature: 43° C.
(a) Mobile phases for the determination in the acidic range: 0.1% phosphoric acid, acetonitrile; linear gradient from 10% acetonitrile to 90% acetonitrile—the corresponding measurement results in Table 1 are marked a).
Calibration was carried out using unbranched alkan-2-ones (having 3 to 16 carbon atoms) with known logP values (determination of the logP values by the retention times using linear interpolation between two successive alkanones).

weeds [2] = experiment: Post-emergence test (herbicidal action); format: in vivo; details: test plants of 5-15 cm sprayed, rated after three weeks
Description: Post-Emergence Test (Herbicidal Action)
(§1) To produce a suitable preparation of active compound, 1 part by weight of active compound is mixed with the stated amount of solvent, the stated amount of emulsifier is added and the concentrate is diluted with water to the desired concentration.
Test plants of a height of 5-15 cm are sprayed with the preparation of active compound such that the particular amounts of active compound desired are applied per unit area. The concentration of the spray liquor is chosen such that the particular amounts of active compound desired are applied in 1000 l of water/ha.
(§2) After three weeks, the degree of damage to the plants is rated in % damage in comparison to the development of the untreated control.

weeds [3] = experiment: Pre-emergence test (herbicidal action); format: in vivo; details: soil sprayed 24 hours after sowing, rated after three weeks
Description: Pre-Emergence Test (Herbicidal Action)
as §1
Seeds of the test plants are sown in normal soil. After 24 hours, the soil is sprayed with the preparation of active compound such that the particular amount of active compound desired is applied per unit area. The concentration of active compound in the spray liquor is chosen such that the particular amount of active compound desired is applied in 1000 litres of water per hectare.
as §2

Meloidogyne incognita = experiment: Meloidogyne test (nematicidal action); format: in vivo; details: Meloidogyne incognita egg/larvae suspension, lettuce in sand
Description: Meloidogyne Test (Nematicidal Action)
To produce a suitable preparation of active compound, 1 part by weight of active compound is mixed with the stated amounts of solvent and emulsifier, and the concentrate is diluted with water to the desired concentration.
Vessels are filled with sand, solution of active compound, Meloidogyne incognita egg/larvae suspension and lettuce seeds. The lettuce seeds germinate and the plants develop. On the roots, galls are formed.
After the desired period of time, the nematicidal action is determined in % by the formation of galls. 100% means that no galls have been found; 0% means that the number of galls on treated plants corresponds to that of the untreated control.

Row | melting point | chromatographic logP [1] | Compound | herbicidal action against weeds (degree of damage) (weeds [2]) | herbicidal action against weeds (degree of damage) (weeds [3]) | nematicidal action (formation of galls) (Meloidogyne incognita) | logP a) (Table 1, Physical data) [1]
1 | 239 °C | 2.19 | O=c1[nH]c(C2CC2)nc2c1cnn2-c1ncc(C(F)(F)F)cc1Cl [Example 5, 1-(3-chloro-5-trifluoromethylpyridin-2-yl)-6-cyclopropyl-1,5-dihydropyrazolo[3,4-d]pyrimidin-4-one] | – | – | – | –
2 | 211 °C | 2.29 | O=c1[nH]c(C2(F)CC2)nc2c1cnn2-c1ncc(C(F)(F)F)cc1Cl [Example 6, 6-(1-fluorocyclopropyl)-1-(3-chloro-5-trifluoromethylpyridin-2-yl)-1,5-dihydropyrazolo[3,4-d]pyrimidin-4-one] | strong action against weeds | – | – | –
3 | 196 °C | 1.46 | NC(=O)c1cnn(-c2ncc(C(F)(F)F)cc2Cl)c1N [II-1, 5-amino-1-(3-chloro-5-trifluoromethylpyridin-2-yl)pyrazole-4-carboxamide] | – | – | – | –
4 | 204 °C | 2.02 | NC(=O)c1cnn(-c2ncc(C(F)(F)F)cc2Cl)c1NC(=O)C1(F)CC1 [VI-1, 5-(1-fluorocyclopropylcarbonylamino)-1-(3-chloro-5-trifluoromethylpyridin-2-yl)pyrazole-4-carboxamide] | – | – | – | –

The next lines start with the compound.

Row | Compound | melting point | chromatographic logP [1] | herbicidal action against weeds (degree of damage) (weeds [2]) | herbicidal action against weeds (degree of damage) (weeds [3]) | nematicidal action (formation of galls) (Meloidogyne incognita) | logP a) (Table 1, Physical data) [1]
5 | CCc1nc2c(cnn2-c2ncc(C(F)(F)F)cc2Cl)c(=O)n1C [Example 16] | – | – | strong action against weeds | strong action against weeds | good activity | (I) logP = 2.46^a)
6 | Cn1c(C2CC2)nc2c(cnn2-c2ncc(Cl)cc2Cl)c1=O [Example 80] | – | – | strong action against weeds | strong action against weeds | good activity | (I) logP = 2.30^a)
